Experimental data reported in patent publication US8426408B2, “Pyrimidine inhibitors of kinases” (AbbVie Inc., priority 2009, dated 2013).

Key:
Format in all cases: biochemical
Aurora B = target: T1, Aurora B (Homo sapiens, UniProt Q96GD4); experiment: Aurora B enzyme inhibition (time-resolved fluorescence, histone H3 peptide); details: 1 mM ATP
T1 construct: Active Aurora B enzyme (recombinant residues 1-344)
Method: To determine Aurora B activity of representative compounds of the invention, Active Aurora B enzyme (recombinant residues 1-344) and INCENP (recombinant GST fusion protein (Upstate)) were incubated in wells of a 384 well plate with biotinylated histone H3 peptide residues 1-21 (Upstate), 1 mM ATP, and various concentrations of inhibitors in a HEPES buffer, pH 7.4 containing MgCl2, sodium othrovanadate, and Triton X-100. After 1 hour, the reaction was stopped with EDTA and anti-phospho-histone H3 Europium Cryptate (Cis-Bio) and SA-APC (Phycolink, Prozyme) were added to detect the phosphopeptide. The amount of phosphorylation was determined by the time-resolved fluorescence ratio of signals at 665 nm and 615 nm. The IC50's were calculated by an exponential fit of the inhibition values with the inhibitor concentrations using Assay Explorer software.

KDR = KDR (Homo sapiens, UniProt P35968); experiment: KDR HTRF in vitro kinase assay; set-up: purified enzyme (His6-KDR 789-1354, MW 63 kD); His6 (N); details: 1 mM ATP; read-out: KDR enzyme inhibition data (Ki)
Sequence of KDR (P35968 789-1354): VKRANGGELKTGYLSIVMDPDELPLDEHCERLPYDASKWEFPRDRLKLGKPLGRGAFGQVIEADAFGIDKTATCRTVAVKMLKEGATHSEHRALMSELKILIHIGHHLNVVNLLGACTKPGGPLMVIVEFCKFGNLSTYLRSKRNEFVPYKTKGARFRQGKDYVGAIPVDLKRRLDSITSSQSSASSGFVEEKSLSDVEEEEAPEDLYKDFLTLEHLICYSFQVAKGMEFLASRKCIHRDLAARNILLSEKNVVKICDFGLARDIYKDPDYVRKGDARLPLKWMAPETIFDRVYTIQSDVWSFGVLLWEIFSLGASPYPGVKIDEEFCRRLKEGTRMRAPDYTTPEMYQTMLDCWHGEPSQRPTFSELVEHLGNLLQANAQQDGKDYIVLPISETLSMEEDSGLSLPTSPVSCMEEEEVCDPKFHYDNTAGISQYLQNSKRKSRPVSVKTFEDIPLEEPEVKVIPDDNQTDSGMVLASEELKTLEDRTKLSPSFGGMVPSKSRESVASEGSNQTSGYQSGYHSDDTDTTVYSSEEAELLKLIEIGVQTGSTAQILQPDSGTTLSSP
Method: To determine the activity of the various kinases, a homogenous time-resolved fluorescence (HTRF) in vitro kinase assay was used. (Mathis, G., HTRF® Technology. J Biomol Screen, 1999. 4(6): p. 309-314; Alfred J. Kolb, Paul V. Kaplita, David J. Hayes, Young-Whan Park, Christine Pernell, John S. Major and Gerard Mathis, Drug Discovery Today, 1998, 3, 333-342.)
For example for KDR, 7 ng/well of purified enzyme (His6-KDR 789-1354, MW 63 kD) was mixed with 0.5 μM N-biotinylated substrate (Biotin-Ahx-AEEEYFFLA-amide (SEQ. ID. 1)), various concentrations of inhibitor in reaction buffer (50 mM HEPES, pH 7.1, 10 mM MgCl2, 2 mM MnCl2, 0.1% BSA and 1 mM DTT, 40 L final volume), ATP (1 mM final conc.) in a black 384-well plate. After 60 minutes incubation at room temperature, the reaction was quenched by addition of a buffered EDTA solution (final approximate concentrations: 30 mM EDTA, 0.1% BSA, 0.1% Triton X-100 and 0.24M KF) and a solution of revelation agents (to give 0.084 ng/well streptavidin-XL-665 (Cis-Bio) and 6.5 ng/well antiphsophotyrosine mAb PT66-K Europium kryptate) was added to the reaction mixture. The quenched reaction was allowed to stand at room temperature for 3 hours and was then read in a time-resolved fluorescence detector (InVision, Perkin-Elmer) at 620 nm and 665 nm sequentially with excitation. The ratio between the signal of 620 nm and 665 nm was used in the calculation of the IC50.

Aurora A = target: T2, Aurora A (Homo sapiens, UniProt O14965); experiment: Aurora A enzyme inhibition (time-resolved fluorescence, STK substrate-2); details: 1 mM ATP
T2 sequence (O14965 1-403): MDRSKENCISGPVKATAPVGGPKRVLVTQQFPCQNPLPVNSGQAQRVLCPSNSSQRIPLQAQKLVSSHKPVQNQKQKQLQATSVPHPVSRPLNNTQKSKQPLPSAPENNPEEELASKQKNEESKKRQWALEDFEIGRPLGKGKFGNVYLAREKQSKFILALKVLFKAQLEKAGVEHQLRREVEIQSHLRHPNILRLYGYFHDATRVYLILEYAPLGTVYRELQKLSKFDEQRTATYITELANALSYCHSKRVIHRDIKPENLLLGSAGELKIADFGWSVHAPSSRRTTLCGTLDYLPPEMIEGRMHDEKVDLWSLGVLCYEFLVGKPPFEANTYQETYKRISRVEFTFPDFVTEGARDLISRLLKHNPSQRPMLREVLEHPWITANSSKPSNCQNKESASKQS
Method: To determine Aurora A and C activity of representative compounds of the invention, Active Aurora A or C enzyme was incubated in wells of a 384 well plate with biotinylated STK substrate-2 (Upstate), 1 mM ATP, and various concentrations of inhibitors in a Hepes buffer, pH 7.4 containing MgCl2, sodium othrovanadate, and Triton X-100. After 1 hour, the reaction was stopped with EDTA and anti-phospho-STK antibody Europium Cryptate (Upstate) and SA-XL665 (Upstate) were added to detect the phosphopeptide. The amount of phosphorylation was determined by the time-resolved fluorescence ratio of signals at 665 nm and 615 nm. The IC50s were calculated by an exponential fit of the inhibition values with the inhibitor concentrations using Assay Explorer software.

T1 sequence (Q96GD4 whole entry, the tested form may be a part): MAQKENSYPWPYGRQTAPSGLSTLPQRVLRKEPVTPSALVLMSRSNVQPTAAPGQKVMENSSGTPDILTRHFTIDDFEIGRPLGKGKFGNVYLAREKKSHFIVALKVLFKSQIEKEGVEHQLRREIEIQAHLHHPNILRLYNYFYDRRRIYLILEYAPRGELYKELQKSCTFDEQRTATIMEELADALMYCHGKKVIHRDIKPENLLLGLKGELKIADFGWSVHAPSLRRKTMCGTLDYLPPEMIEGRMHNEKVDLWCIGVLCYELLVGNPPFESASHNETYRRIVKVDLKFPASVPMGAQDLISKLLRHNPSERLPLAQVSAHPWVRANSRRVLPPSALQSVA
T1 sequence (Q9NQS7 826-918 partner limits assumed): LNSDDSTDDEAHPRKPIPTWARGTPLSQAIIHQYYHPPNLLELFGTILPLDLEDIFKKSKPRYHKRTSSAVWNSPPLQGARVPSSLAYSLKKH

Row | Molecule | Ki (Aurora B) | Ki (KDR) | Ki (Aurora A)
1 | CC(C)OC(=O)Cn1cc(Nc2ncc(Cl)c(N[C@H]3[C@@H](C(N)=O)[C@@H]4C=C[C@H]3C4)n2)cn1 [Example 78, isopropyl{4-[(4-{[(1R,2R,3S,4S)-3-(aminocarbonyl)bicyclo[2.2.1]hept-5-ene-2-yl]amino}-5-chloropyrimidin-2-yl)amino]-1H-pyrazol-1-yl}acetate] | < 100 nM | < 100 nM | < 100 nM
2 | COc1cnc(Nc2cnn(C)c2)nc1NC1C2C=CC(C2)C1C(N)=O (mixture of isomers) [Example 52, (1S,2S,3R,4R)-3-({5-methoxy-2-[(1-methyl-1H-pyrazol-4-yl)amino]pyrimidin-4-yl}amino)bicyclo[2.2.1]hept-5-ene-2-carboxamide and (1R,2R,3S,4S)-3-({5-methoxy-2-[(1-methyl-1H-pyrazol-4-yl)amino]pyrimidin-4-yl}amino)bicyclo[2.2.1]hept-5-ene-2-carboxamide] | < 100 nM | < 100 nM | < 100 nM
3 | CCn1cc(Nc2ncc(Br)c(N[C@H]3[C@@H](C(N)=O)[C@@H]4C=C[C@H]3C4)n2)cn1 [Example 79, (1S,2S,3R,4R)-3-({5-bromo-2-[(1-ethyl-1H-pyrazol-4-yl)amino]pyrimidin-4-yl}amino)bicyclo[2.2.1]hept-5-ene-2-carboxamide] | < 100 nM | < 100 nM | < 100 nM
4 | CC(O)Cn1cc(Nc2ncc(F)c(NC3C4C=CC(C4)C3C(N)=O)n2)cn1 (mixture of isomers) [Example 15, (1R,2R,3S,4S)-3-{[5-fluoro-2-({1-[(2R)-2-hydroxypropyl]-1H-pyrazol-4-yl}amino)pyrimidin-4-yl]amino}bicyclo[2.2.1]hept-5-ene-2-carboxamide and (1S,2S,3R,4R)-3-{[5-fluoro-2-({1-[(2R)-2-hydroxypropyl]-1H-pyrazol-4-yl}amino)pyrimidin-4-yl]amino}bicyclo[2.2.1]hept-5-ene-2-carboxamide] | < 100 nM | 1000 to 5000 nM | 100 to 1000 nM
5 | Cn1cc(Nc2ncc(F)c(N[C@@H]3CCC[C@@H]3C(N)=O)n2)cn1.Cn1cc(Nc2ncc(F)c(N[C@H]3CCC[C@H]3C(N)=O)n2)cn1 (mixture of isomers) [Example 4, (1S,2R)-2-({5-fluoro-2-[(1-methyl-1H-pyrazol-4-yl)amino]pyrimidin-4-yl}amino)cyclopentanecarboxamide and (1R,2S)-2-({5-fluoro-2-[(1-methyl-1H-pyrazol-4-yl)amino]pyrimidin-4-yl}amino)cyclopentanecarboxamide] | 100 to 1000 nM | > 5000 nM | > 5000 nM
6 | CCn1cc(Nc2ncc(C(F)(F)F)c(N[C@@H]3[C@H](C(=O)NC4CC4)[C@H]4C=C[C@@H]3C4)n2)cn1.CCn1cc(Nc2ncc(C(F)(F)F)c(N[C@H]3[C@@H](C(=O)NC4CC4)[C@@H]4C=C[C@H]3C4)n2)cn1 (mixture of isomers) [Example 71, (1S,2S,3R,4R)—N-cyclopropyl-3-{[2-[(1-ethyl-1H-pyrazol-4-yl)amino]-5-(trifluoromethyl)pyrimidin-4-yl]amino}bicyclo[2.2.1]hept-5-ene-2-carboxamide and (1R,2R,3S,4S)—N-cyclopropyl-3-{[2-[(1-ethyl-1H-pyrazol-4-yl)amino]-5-(trifluoromethyl)pyrimidin-4-yl]amino}bicyclo[2.2.1]hept-5-ene-2-carboxamide] | < 100 nM | < 100 nM | < 100 nM
7 | isopropyl{4-[(4-{[(1R,2R,3S,4S)-3-(aminocarbonyl)bicyclo[2.2.1]hept-5-ene-2-yl]amino}-5-fluoropyrimidin-2-yl)amino]-1H-pyrazol-1-yl}acetate and isopropyl{4-[(4-{[(1S,2S,3R,4R)-3-(aminocarbonyl)bicyclo[2.2.1]hept-5-ene-2-yl]amino}-5-fluoropyrimidin-2-yl)amino]-1H-pyrazol-1-yl}acetate [Example 6] | 100 to 1000 nM | 100 to 1000 nM | 100 to 1000 nM
8 | CNC(=O)[C@@H]1[C@H](Nc2nc(Nc3cnn(C)c3)ncc2Cl)[C@H]2C=C[C@@H]1C2 (racemic) [Example 50, (1S,2S,3R,4R)-3-({5-chloro-2-[(1-methyl-1H-pyrazol-4-yl)amino]pyrimidin-4-yl}amino)-N-methylbicyclo[2.2.1]hept-5-ene-2-carboxamide and (1R,2R,3S,4S)-3-({5-chloro-2-[(1-methyl-1H-pyrazol-4-yl)amino]pyrimidin-4-yl}amino)-N-methylbicyclo[2.2.1]hept-5-ene-2-carboxamide] | < 100 nM | < 100 nM | < 100 nM
9 | C[C@@H](O)Cn1cc(Nc2ncc(C(F)(F)F)c(N[C@H]3[C@@H](C(N)=O)[C@@H]4C=C[C@H]3C4)n2)cn1 [Example 69, (1S,2S,3R,4R)-3-{[2-({1-[(2R)-2-hydroxypropyl]-1H-pyrazol-4-yl}amino)-5-(trifluoromethyl)pyrimidin-4-yl]amino}bicyclo[2.2.1]hept-5-ene-2-carboxamide] | < 100 nM | < 100 nM | < 100 nM
10 | CCn1cc(Nc2ncc(Cl)c(N[C@@H]3[C@H]4CC[C@H](C4)[C@@H]3C(N)=O)n2)cn1.CCn1cc(Nc2ncc(Cl)c(N[C@H]3[C@@H]4CC[C@@H](C4)[C@H]3C(N)=O)n2)cn1 (mixture of isomers) [Example 57, (1R,2S,3R,4S)-3-({5-chloro-2-[(1-ethyl-1H-pyrazol-4-yl)amino]pyrimidin-4-yl}amino)bicyclo[2.2.1]heptane-2-carboxamide and (1S,2R,3S,4R)-3-({5-chloro-2-[(1-ethyl-1H-pyrazol-4-yl)amino]pyrimidin-4-yl}amino)bicyclo[2.2.1]heptane-2-carboxamide] | < 100 nM | < 100 nM | < 100 nM
11 | CCOC(=O)[C@@H]1[C@H](Nc2nc(Nc3cnn(C)c3)ncc2F)[C@H]2C=C[C@@H]1C2.CCOC(=O)[C@H]1[C@@H](Nc2nc(Nc3cnn(C)c3)ncc2F)[C@@H]2C=C[C@H]1C2 (mixture of isomers) [Example 7, ethyl(1S,2S,3R,4R)-3-({5-fluoro-2-[(1-methyl-1H-pyrazol-4-yl)amino]pyrimidin-4-yl}amino)bicyclo[2.2.1]hept-5-ene-2-carboxylate and ethyl(1R,2R,3S,4S)-3-({5-fluoro-2-[(1-methyl-1H-pyrazol-4-yl)amino]pyrimidin-4-yl}amino)bicyclo[2.2.1]hept-5-ene-2-carboxylate] | 100 to 1000 nM | > 5000 nM | > 5000 nM
12 | NC(=O)[C@@H]1[C@H](Nc2nc(Nc3cnn(CCN4CCCCC4)c3)ncc2Cl)[C@H]2C=C[C@@H]1C2.NC(=O)[C@H]1[C@@H](Nc2nc(Nc3cnn(CCN4CCCCC4)c3)ncc2Cl)[C@@H]2C=C[C@H]1C2 (mixture of isomers) [Example 36, (1S,2S,3R,4R)-3-[(5-chloro-2-{[1-(2-piperidin-1-ylethyl)-1H-pyrazol-4-yl]amino}pyrimidin-4-yl)amino]bicyclo[2.2.1]hept-5-ene-2-carboxamide and (1R,2R,3S,4S)-3-[(5-chloro-2-{[1-(2-piperidin-1-ylethyl)-1H-pyrazol-4-yl]amino}pyrimidin-4-yl)amino]bicyclo[2.2.1]hept-5-ene-2-carboxamide] | < 100 nM | < 100 nM | < 100 nM
